For data set [1], the species on record is Rattus norvegicus. The data set is described as follows: animal or person.
Description: In vivo inhibition of apomorphine induced hyperactivity in rats.
For data set [2], the species on record is Rattus norvegicus. The experiment in a line: animal or person. This is another data set of the same source.
Description: In vivo inhibition of apomorphine induced stereotypy in rats.
The nature of data set [3]: in vivo. Conditions: rat, ip.
Description: Compound was tested for its acute toxicity in rat after ip administration
The subject of data set [4] is Rattus norvegicus. The experiment in a line: Compound was tested for anti-dopamine activity in vivo by its ability to inhibit apomorphine induced hyperactivity in rat. Format: functional.
In data set [5] the test system is Rattus norvegicus. The experiment in a line: Compound was tested for anti-dopamine activity in vivo by its ability to inhibit apomorphine induced stereotypy in rat. In kind it is functional.

Structures are written as SMILES.

In the case of `CCc1cc(Br)c(O)c(C(=O)NC[C@@H]2CCCN2CC)c1OC`, the 50% effective dose (ED50) in data set [1] is 0.87 µmol/kg; in data set [2] it was 1.45 µmol/kg.

As to `CCN1CCC[C@H]1CNC(=O)c1c(O)c(C)cc(C)c1OC`, the ED50 in data set [1] was determined as 1.86 µmol/kg; in data set [2], 3.1 µmol/kg.

In the case of `CCc1cc(F)c(OC)c(C(=O)NC[C@@H]2CCCN2CC)c1O`, the median effective dose (ED50) in data set [1] was determined as 0.065 µmol/kg; in data set [2] it was 0.31 µmol/kg.

Take `CCN1CCC[C@H]1CNC(=O)c1cc(Br)cc(Br)c1OC`: the figures for the ED50 in data set [1] and in data set [2] were 0.66 µmol/kg and 2.69 µmol/kg, respectively.

In the case of `CCN1CCC[C@H]1CNC(=O)c1c(O)c(Br)cc(Cl)c1OC`, the values for the median effective dose (ED50) in data set [1] and in data set [2] were 0.95 µmol/kg and 1.35 µmol/kg, respectively.

With `CCN1CCC[C@H]1CNC(=O)c1c(O)c(Br)cc(F)c1OC`, the median effective dose (ED50) in data set [1] worked out at 0.16 µmol/kg; in data set [2], 0.42 µmol/kg.

As to `CCc1cc(Br)c(OC)c(C(=O)NC[C@@H]2CCCN2CC)c1O`, the median effective dose (ED50) in data set [1] is 0.085 µmol/kg; in data set [2] it was 0.47 µmol/kg. The compound also gave a 50% lethal dose (LD50) in data set [3] of 320 µmol/kg.

Turning to `CCN1CCC[C@H]1CNC(=O)c1c(O)c(C)cc(Cl)c1OC`, the figures for the ED50 in data set [1] and in data set [2] were 0.74 µmol/kg and 1.32 µmol/kg, respectively.

Turning to `CCc1ccc(OC)c(C(=O)NC[C@@H]2CCCN2CC)c1O`, the figures for the ED50 in data set [1] and in data set [2] were 0.12 µmol/kg and 0.28 µmol/kg, respectively. In addition, in data set [3], the 50% lethal dose (LD50) was 370 µmol/kg.

`CCc1cc(Cl)c(O)c(C(=O)NC[C@@H]2CCCN2CC)c1OC`: the results for the median effective dose (ED50) in data set [1] and in data set [2] were 2.5 µmol/kg and 1.51 µmol/kg, respectively.

As for `CCN1CCC[C@H]1CNC(=O)c1c(O)c(Br)cc(Br)c1OC`, the ED50 in data set [1] amounted to 0.65 µmol/kg; in data set [2], 1.48 µmol/kg. This compound also came in with an LD50 in data set [3] of 450 µmol/kg.

For the compound `CCN1CCC[C@@H]1CNC(=O)c1c(O)c(Cl)cc(Cl)c1OC`, the ED50 in data set [1] was found to be 1.07 µmol/kg; in data set [2], 32 µmol/kg.

As for `CCN1CCC[C@H]1CNC(=O)c1cc(Br)cc(Br)c1O`, the ED50 is 28 µmol/kg in data set [1] and > 40 µmol/kg in data set [2].

With `CCCc1cc(Cl)c(OC)c(C(=O)NC[C@@H]2CCCN2CC)c1O`, the ED50 in data set [1] worked out at 0.1 µmol/kg; in data set [2] it was 0.35 µmol/kg.

With `CCc1cc(CC)c(OC)c(C(=O)NC[C@@H]2CCCN2CC)c1O`, the ED50 came out at 0.076 µmol/kg in data set [1] and 0.46 µmol/kg in data set [2]. In data set [3], this compound registered a 50% lethal dose (LD50) of 530 µmol/kg.

On to `CCc1cc(Cl)c(OC)c(C(=O)NC[C@@H]2CCCN2CC)c1O` [ETICLOPRIDE], for which the ED50 was 0.032 µmol/kg in data set [1] and 0.19 µmol/kg in data set [2]. In data set [3], the LD50 stood at 330 µmol/kg.

Consider `O=C(CCCN1CCC(O)(c2ccc(Cl)cc2)CC1)c1ccc(F)cc1` [HALOPERIDOL], for which, in data set [3], the 50% lethal dose (LD50) amounted to 93 µmol/kg. The median effective dose (ED50) amounted to 0.29 µmol/kg in data set [4] and 0.27 µmol/kg in data set [5].

For the compound `CCN1CCC[C@H]1CNC(=O)c1c(O)c(Cl)cc(Cl)c1OC` [RACLOPRIDE], the results for the 50% effective dose (ED50) in data set [1] and in data set [2] were 0.13 µmol/kg and 1.7 µmol/kg, respectively. This compound also displayed an LD50 in data set [3] of 660 µmol/kg.

As usually defined, the ED50 is the midpoint of the dose-response relation. Higher therefore signals weaker potency. What is called LD50 is the dose expected to kill half of the subjects tested. Low readings indicate a more toxic substance, high ones a less toxic substance.

(Values after ChEMBL document CHEMBL1123212 (J Med Chem, 1986).)
